How the values were obtained:
[1] = Reoxidation of reduced BLG in air; assay type: physicochemical; conditions: reduced by either NTS or DTT
Procedure: Two sulfhydryl (SH) groups can often spontaneously react to form an S—S bond in the presence of oxygen. […] For example, the reduced form of β-lactoglobulin (BLG), a major allergen of cow's milk, is fully reoxidized after 3 days in air whether reduced by either NTS or DTT. This invention provides for the stabilization of proteins, including allergenic proteins reduced by the NTS at 4° C. and by DTT at 55° C. Other physiological reductants such as lipoic acid may also be used to initially reduce the proteins. In general, the reduction reactions were conducted as described in previous examples. The proteins are stabilized in that the SH groups of these proteins and allergens are blocked and prevented from reoxidizing to form S—S bonds. This stabilization is maintained for at least three months, preferably at least six months and more preferably for longer than one year. Reduced BLG was stabilized by reaction with the physiological disulfides, cystamine and oxidized glutathione (GSSG) and also by heat. Other physiological disulfides such as homoglutathione and some microbial disulfides would also be suitable. Besides BLG, examples are provided for milk, peanut and pollen extracts. However, other reduced proteins such as those of egg, soy, rice, wheat and barley may also be stabilized by reaction with the same physiological disulfides and by treatment with heat. […]

castor seed 2S protein = assay type: biochemical, Ricinus communis; conditions: 20 min at 25° C.
Acetylcholine Receptor = target: T1, Acetylcholine Receptor (Mus musculus, UniProt P02716+P04756+P04760); assay type: binding; conditions: cells treated with reductant, washed, then toxin; no reductant = 100
T1 construct: Mouse cells, line C2, were grown as described by Gu et al; endogenous in cells; host or cells: mouse cell line C2, after fusion medium (myotubes)
T1 sequence (P04760 23-519): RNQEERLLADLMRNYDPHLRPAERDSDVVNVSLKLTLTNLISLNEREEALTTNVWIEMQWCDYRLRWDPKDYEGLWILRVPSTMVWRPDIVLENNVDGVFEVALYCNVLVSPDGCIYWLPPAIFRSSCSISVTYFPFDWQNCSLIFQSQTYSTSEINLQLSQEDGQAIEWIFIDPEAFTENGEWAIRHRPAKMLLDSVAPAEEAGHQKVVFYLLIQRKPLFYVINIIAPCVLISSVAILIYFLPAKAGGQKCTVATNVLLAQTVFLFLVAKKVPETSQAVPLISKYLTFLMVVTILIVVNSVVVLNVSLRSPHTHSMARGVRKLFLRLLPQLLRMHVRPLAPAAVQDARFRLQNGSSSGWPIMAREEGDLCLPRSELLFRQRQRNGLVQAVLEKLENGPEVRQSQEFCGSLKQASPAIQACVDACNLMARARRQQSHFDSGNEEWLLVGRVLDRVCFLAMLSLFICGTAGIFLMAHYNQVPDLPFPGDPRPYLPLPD
T1 sequence (P02716 25-520): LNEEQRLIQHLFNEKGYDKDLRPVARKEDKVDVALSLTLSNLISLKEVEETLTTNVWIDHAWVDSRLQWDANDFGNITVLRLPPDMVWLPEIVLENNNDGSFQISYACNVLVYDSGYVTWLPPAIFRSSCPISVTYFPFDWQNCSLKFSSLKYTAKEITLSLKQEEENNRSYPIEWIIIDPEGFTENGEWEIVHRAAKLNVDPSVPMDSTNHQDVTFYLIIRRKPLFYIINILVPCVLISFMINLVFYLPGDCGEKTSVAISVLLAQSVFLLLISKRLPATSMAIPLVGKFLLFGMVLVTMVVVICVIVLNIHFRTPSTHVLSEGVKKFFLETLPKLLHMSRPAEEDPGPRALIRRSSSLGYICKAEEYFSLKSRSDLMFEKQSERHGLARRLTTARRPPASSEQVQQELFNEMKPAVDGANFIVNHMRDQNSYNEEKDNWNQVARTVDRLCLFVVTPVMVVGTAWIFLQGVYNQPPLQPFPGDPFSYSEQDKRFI
T1 sequence (P09690 24-501, further chain): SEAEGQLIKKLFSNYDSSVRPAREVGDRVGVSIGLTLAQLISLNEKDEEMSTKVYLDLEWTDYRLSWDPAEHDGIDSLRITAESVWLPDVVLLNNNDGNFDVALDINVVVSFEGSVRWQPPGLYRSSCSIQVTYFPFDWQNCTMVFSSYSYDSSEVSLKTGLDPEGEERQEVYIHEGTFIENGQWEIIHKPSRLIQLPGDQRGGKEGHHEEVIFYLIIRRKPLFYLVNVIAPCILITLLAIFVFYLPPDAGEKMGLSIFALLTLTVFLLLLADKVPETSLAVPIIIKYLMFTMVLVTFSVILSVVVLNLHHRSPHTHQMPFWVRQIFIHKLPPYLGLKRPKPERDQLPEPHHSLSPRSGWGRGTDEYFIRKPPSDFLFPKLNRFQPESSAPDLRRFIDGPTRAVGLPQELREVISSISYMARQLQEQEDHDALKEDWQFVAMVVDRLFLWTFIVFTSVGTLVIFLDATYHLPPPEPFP
T1 sequence (P04756 21-457): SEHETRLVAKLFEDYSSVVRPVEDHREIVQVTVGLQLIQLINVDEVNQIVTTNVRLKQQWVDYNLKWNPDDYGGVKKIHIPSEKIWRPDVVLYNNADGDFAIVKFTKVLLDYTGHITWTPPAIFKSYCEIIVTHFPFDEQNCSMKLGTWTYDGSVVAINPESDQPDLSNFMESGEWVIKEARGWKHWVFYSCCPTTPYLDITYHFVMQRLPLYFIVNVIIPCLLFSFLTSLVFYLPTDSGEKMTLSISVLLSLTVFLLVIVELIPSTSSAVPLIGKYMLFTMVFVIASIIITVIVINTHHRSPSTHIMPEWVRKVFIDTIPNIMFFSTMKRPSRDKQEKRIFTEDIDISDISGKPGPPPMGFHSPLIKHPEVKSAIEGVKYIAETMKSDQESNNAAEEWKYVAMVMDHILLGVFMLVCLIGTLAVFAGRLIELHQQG

atopic dogs = experiment: Skin tests in atopic dogs (wheal area); conditions: dog, in vivo
Procedure: Newborn pups from two litters of the atopic dog colony, designated CGB and GCB, were injected subcutaneously at day 1 with 1 μg each of wheat, cows milk and beef extract (Miles, Inc., Elkhart, Ind., described in Example 33) in 0.2 ml of alum. A third litter, designated CBB, was injected with a soy extract (Miles, Inc. described in Example 33) in addition to these same allergens. Procedures for the sensitization, testing and maintenance of the pups were substantially the same as those described in Example 36.
About 3 min prior to skin testing, each dog received 4-5 ml of filtered 0.5% Evans blue dye solution (equivalent to 0.2 ml of 0.5% Evans blue dye per kg of weight) through a cephalic vein to enhance assessment of the cutaneous IgE antibodies. Serial dilutions of 100 μl of each sample were injected intradermally on the abdominal skin to establish the titer. After 15-20 min, the allergic response was determined by measuring the size of the blue wheal reaction (maximum length and width). An appropriate negative control (buffer diluted in physiological saline) was included for each animal tested. Repeated tests with thioredoxin, NTR, NADPH and pepsin alone were consistently negative.

trypsin = experiment: Trypsin proteolysis of purified milk allergen proteins; assay type: biochemical; conditions: 2 μg trypsin
Procedure: The analysis of the reduction was done using the mBBr/SDS-PAGE techniques. Further in this study, when 10 μg of an NTS reduced purified milk allergen protein, β-lactoglobulin (Sigma Chemical Co.), was treated with 2 μg of trypsin, proteolysis was 100% as compared with only 50% for the identically trypsin treated oxidized β-lactoglobulin. […] However, 10 μg of purified […] reduced by the NTS was proteolyzed 80% by trypsin. Also 10 μg of α-lactalbumin reduced by 0.8 μg of thioredoxin and 0.5 mM DTT was 100% proteolyzed by 2 μg of trypsin.

pepsin [2] = experiment: Assay for stability to pepsin (simulated gastric fluid); assay type: in vitro ADME, porcine; conditions: 37° C.
Procedure: BLG (1 mg/ml) or milk (15 mg/ml) were mixed with simulated gastric fluid (SGF) to give 0.32% pepsin and incubated for the indicated times at 37° C. as described in Example 39 and Astwood et al., 1996, herein incorporated by reference. The digested proteins were analyzed by reducing SDS-PACE (10 to 20% gradient gel) also as described in Laemmli, 1970, herein incorporated by reference.

pepsin [3] = experiment: Pepsin assay in simulated gastric fluid; assay type: in vitro ADME, porcine; conditions: oxidized BLG in milk, SGF 37° C.
Procedure: BLG, 640 μg, or milk, 1 mg protein (i.e., about 30 μl), was incubated with or without the thioredoxin system (NTS) at either 4° C. […] The BLG, 320 μg, or milk, 500 μg protein, was then treated in 200 μl of simulated gastric fluid (SGF) as described by Astwood, J. D. et al. (1996), “Stability of food allergens to digestion in vitro”, Nature Biotechnol. 14:1269-1273. SGF consists of 0.32% pepsin (w/v) and 30 mM NaCl adjusted at pH 1.2 with HCl (Board of Trustees (ed.) 1995, Simulated Gastric Fluid, TS., pp. 2053 in the United States Pharmacopeia 23, The National Formulary 18. United States Pharmacopeial Convention, Inc. Rockville, Md.). The reaction mixture was incubated at 37° C. and stopped by adding 0.375-fold volume of 160 mM Na2CO3 (ca. pH 7) after 0, 0.25, 1, 2, 4, 8, 15, 30 and 60 min incubation. The protein mixture was then subjected to SDS-PAGE (15% gels) and stained for protein with Coomassie blue as described below. As indicated, the allergenicity of the digested samples was determined by skin test analysis.

NADP/thioredoxin system = NADP/thioredoxin system (Escherichia coli, UniProt P0AA25)
Procedure: Reactions were carried out in physiological buffered saline solution (PBS; i.e., 10 mM Na2HPO4, 1.8 mM KH2PO4, 2.7 mM KCl and 137 mM NaCl, pH 7.4) containing either 10 μg of pure target protein or 50 μg of raw milk. The reaction mixtures were incubated at 4° C. overnight or at 37° C. and 55° C. for 45 min. For complete reduction, samples were incubated in PBS containing 5 μl of 100 mM DTT and boiled 5 min. The reduced proteins were visualized on gels by mBBr labeling and gel electrophoresis as described below. The extent of reduction was determined by scanning the gels.
Sulfhydryl groups were visualized as their fluorescent mBBr derivatives. mBBr, 10 μl of a 100 mM solution, was added to each protein sample. After 20 min of incubation, the reaction was stopped by adding 10 μl of 100 mM 2-mercaptoethanol, 10 μl of 20% SDS and 20 μl of SDS/PAGE sample buffer containing 80% (v/v) glycerol and 0.005% bromophenol blue. Proteins were then separated by SDS/PAGE (10-20% acrylamide gradient) as described below. After electrophoresis, gels were placed in 12% trichloroacetic acid for 1 hr for fixation and then soaked overnight or longer in 40% (v/v) methanol and 10% (v/v) acetic acid with several changes to remove excess mBBr. The destained gels were then placed under 365 nm UV light to visualize fluorescent bands. […]

reduced form of BLG: BLG reduced by either NTS or DTT
time to full reoxidation in air [1]: 3 days

O[C@H](CS)[C@H](O)CS (racemic) [DTT, dithiothreitol]
Relative Reduction (%) (castor seed 2S protein): 67% | % Binding, Treatment C (Acetylcholine Receptor): 85.0%

β-lactoglobulin: bovine β-lactoglobulin, major milk allergen; Control = untreated BLG in Tables XVIII, XXI-XXIV
share of the total wheal-inducing activity of milk (atopic dogs): 80% | proteolysis by trypsin (trypsin; 10 μg oxidized protein): 50% | proteolysis by trypsin (trypsin; 10 μg protein reduced by the NTS): 100% | half-life in SGF (pepsin [2]): about 2 hours | time resisting digestion (pepsin [3]): at least 60 min | time BLG remained reduced (NADP/thioredoxin system): 2 days

From US6677433B2 (The Regents of the University of California, priority 2001, dated 2004)
